Molecular target: human recombinant H-PGDS (Homo sapiens, UniProt O60760)
Test: Fluorescence Intensity h-PGDS TBA Enzyme Assay
Assay type: biochemical
Settings: 1:175,000 human recombinant H-PGDS, highest inhibitor concentration typically 1 μM
Description: Fluorescence Intensity h-PGDSTBA Enzyme Assay
Prostaglandin D Synthase (PGDS) converts the substrate prostaglandin H2 (PGH2) to prostaglandin D2. The depletion of PGH2 was measured via an Fe(II) reduction of the remaining PGH2 to malondialdehyde (MDA) and 12-HHT. The enzyme assay is based on the quantitative formation of a fluorescent complex from the non-fluorescent compounds MDA and 2-thiobarbituric acid (TBA), substantially as described in U.S. patent application publication US-2004/152148 by Lombardt.
The enzyme assay (31 μls) contained 100 mM Tris base pH 8.0, 100 μM MgCl2, 0.1 mg/ml IgG Rabbit serum, 5.0 μM PGH2 (Cayman; ethanol solution, #17020), 2.5 mM L-Glutathione (Sigma; reduced form #G4251), 1:175,000 human recombinant H-PGDS (from 1 mg/ml), 0.5% DMSO and inhibitor (varying concentration). Three μls of diluted inhibitor (dissolved in DMSO) was plated into a 384-well assay plate followed by a 25 μl addition of an enzyme solution containing h-PGDS, Tris, MgCl2, IgG and L-Glutathione. After preincubation of inhibitor and enzyme solution for 10 minutes at room temperature, the reaction was initiated with a 3 μl addition of substrate solution in 10 mM HCl. The reaction was terminated after 42 second by the addition (3 μl) of stop buffer containing FeCl2 and citric acid. After addition of 45.5 μls of TBA plates were heated for one hour in a 70 C oven. Plates were cooled at room temperature overnight and read on a plate reader the next day with excitation @ 530 nm and emission @ 565 nm.
IC50's of inhibitors were calculated with a 4-parameter fit using 11 inhibitor concentrations in duplicate with 3-fold serial dilutions. Controls on each plate included no inhibitor (zero % effect) and an inhibitor 10-fold in excess of its' IC50 (100% effect). The highest inhibitor concentration tested was typically 1 μM.

human recombinant H-PGDS, sequence (O60760 whole entry): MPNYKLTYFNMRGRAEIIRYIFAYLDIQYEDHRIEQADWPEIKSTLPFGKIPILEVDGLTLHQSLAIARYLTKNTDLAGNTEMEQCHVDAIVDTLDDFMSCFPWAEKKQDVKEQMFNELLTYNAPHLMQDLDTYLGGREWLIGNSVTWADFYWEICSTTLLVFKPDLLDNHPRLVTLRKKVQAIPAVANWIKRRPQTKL

Row | Compound | IC50
1 | Cc1cc(C)n(CCCNC(=O)c2ccc(-c3cccc(F)c3)nc2)n1 [Example 131, N-[3-(3,5-Dimethyl-1H-pyrazol-1-yl)propyl]-6-(3-fluorophenyl)nicotinamide] | 27.2 nM
2 | O=C(NCc1ccc(Cl)c(Cl)c1)c1ccc(-c2ccc(F)cc2)nc1 [Example 475, N-(3,4-Dichlorobenzyl)-6-(4-fluorophenyl)nicotinamide] | ≥ 1000 nM
3 | CCOC(=O)CC(NC(=O)c1ccc(-c2cccc(F)c2)nc1)c1ccc(OC)cc1 (centres unmarked) [Example 162, Ethyl 3-({[6-(3-fluorophenyl)pyridin-3-yl]carbonyl}amino)-3-(4-methoxyphenyl)propanoate] | 19.6 nM
4 | O=C(NCCc1nnc(-c2ccc(F)cc2)o1)c1ccc(-c2cccc(F)c2)nc1 [Example 200, 6-(3-Fluorophenyl)-N-{2-[5-(4-fluorophenyl)-1,3,4-oxadiazol-2-yl]ethyl}nicotinamide] | 447 nM
5 | CCC(NC(=O)c1ccc(-c2cccc(F)c2)nc1)c1nn[nH]n1 (centres unmarked) [Example 60, 6-(3-Fluorophenyl)-N-[1-(2H-tetrazol-5-yl)propyl]nicotinamide] | 38.9 nM
6 | O=C(NCCCNc1ccccn1)c1ccc(-c2ccccc2)nc1 [Example 395, 6-Phenyl-N-[3-(pyridin-2-ylamino)propyl]nicotinamide] | 4.1 nM
7 | C[C@@H](CNC(=O)c1ccc(-c2cccc(F)c2)nc1)NC(=O)OCc1ccccc1 [Example 433, Benzyl [(1S)-2-({[6-(3-fluorophenyl)pyridin-3-yl]carbonyl}amino)-1-methylethyl]carbamate] | 33.7 nM
8 | O=C(NC(c1cccc(Cl)c1)c1nn[nH]n1)c1ccc(-c2cccc(F)c2)nc1 (centres unmarked) [Example 123, N-[(3-Chlorophenyl)(2H-tetrazol-5-yl)methyl]-6-(3-fluorophenyl)nicotinamide] | 15.6 nM
9 | O=C(NC1CCOCC1)c1ccc(-c2cccc(F)c2)nc1 [Example 191, 6-(3-Ffluorophenyl)-N-(tetrahydro-2H-pyran-4-yl)nicotinamide] | 2.33 nM
10 | O=C(NC(c1ccccc1)c1nc(CN2CCOCC2)no1)c1ccc(-c2cccc(F)c2)nc1 (centres unmarked) [Example 15, 6-(3-Fluorophenyl)-N-{[3-(morpholin-4-ylmethyl)-1,2,4-oxadiazol-5-yl](phenyl)methyl}nicotinamide] | 70.9 nM
11 | O=C(NCCCN1CCOCC1)c1ccc(-c2cccc(F)c2)nc1 [Example 39, 6-(3-Fluorophenyl)-N-(3-morpholin-4-ylpropyl)nicotinamide] | 42.8 nM
12 | Cc1cc(C)c(C#N)c(N2C[C@H](NC(=O)c3ccc(-c4cccc(F)c4)nc3)[C@@H](O)C2)n1 [Example 563, N-[(3S,4S)-1-(3-Cyano-4,6-dimethylpyridin-2-yl)-4-hydroxypyrrolidin-3-yl]-6-(3-fluorophenyl)nicotinamide] | 5.15 nM
13 | CCCCNC(=O)c1ccc(-c2cccc(OC)c2)nc1 [Example 289, N-Butyl-6-(3-methoxyphenyl)nicotinamide] | 466 nM
14 | CNS(=O)(=O)c1ccc(CNC(=O)c2ccc(-c3cccc(OC)c3)nc2)cc1 [Example 317, 6-(3-Methoxyphenyl)-N-{4-[(methylamino)sulfonyl]benzyl}nicotinamide] | 153 nM
15 | CN(C)CCNC(=O)c1ccc(-c2cccc(F)c2)nc1 [Example 158, N-[2-(Dimethylamino)ethyl]-6-(3-fluorophenyl)nicotinamide] | 337 nM
16 | COC(=O)CCCNC(=O)c1ccc(-c2cccc(F)c2)nc1 [Example 44, Methyl 4-({[6-(3-fluorophenyl)pyridin-3-yl]carbonyl}amino)butanoate] | 13.2 nM
17 | O=C(NCc1coc(-c2ccccc2)n1)c1ccc(-c2cccc(F)c2)nc1 [Example 152, 6-(3-Fluorophenyl)-N-[(2-phenyl-1,3-oxazol-4-yl)methyl]nicotinamide] | 4.49 nM
18 | CCOCCCNC(=O)c1ccc(-c2cccc(F)c2)nc1 [Example 38, N-(3-Ethoxypropyl)-6-(3-fluorophenyl)nicotinamide] | 14.8 nM
19 | COc1ccc(NC(=O)c2ccc(-c3ccccc3)nc2)cc1OC [Example 515, N-(3,4-Dimethoxyphenyl)-6-phenylnicotinamide] | 0.95 nM
20 | COc1ccc(OCC(O)CNC(=O)c2ccc(-c3cccc(F)c3)nc2)cc1 (centres unmarked) [Example 43, 6-(3-Fluorophenyl)-N-[2-hydroxy-3-(4-methoxyphenoxy)propyl] nicotinamide] | 6.64 nM
21 | O=C(NCc1ccc(Cl)cc1)c1ccc(-c2ccc(F)cc2)nc1 [Example 462, N-(4-Chlorobenzyl)-6-(4-fluorophenyl)nicotinamide] | ≥ 1000 nM

Row | Compound | IC50
22 | Cc1cccc(-c2ccc(C(=O)NC(C)c3ccncn3)cn2)c1 (centres unmarked) [Example 319, 6-(3-Methylphenyl)-N-(1-pyrimidin-4-ylethyl)nicotinamide] | 140 nM
23 | CC(NC(=O)c1ccc(-c2cccc(F)c2)nc1)c1ccccc1 (centres unmarked) [Example 423, 6-(3-Fluorophenyl)-N-(1-phenylethyl)nicotinamide] | 8.76 nM
24 | CC(CCCC(C)(C)O)NC(=O)c1ccc(-c2cccc(F)c2)nc1 (centres unmarked) [Example 24, 6-(3-Fluorophenyl)-N-(5-hydroxy-1,5-dimethylhexyl)nicotinamide] | 20.2 nM
25 | CNS(=O)(=O)c1ccc(CNC(=O)c2ccc(-c3cc(F)cc(OC)c3)nc2)cc1 [Example 559, 6-(3-Fluoro-5-methoxyphenyl)-N-{4-[(methylamino)sulfonyl]benzyl}nicotinamide] | 440 nM
26 | O=C(CC(NC(=O)c1ccc(-c2cccc(F)c2)nc1)C1CC1)NCC1CC1 (centres unmarked) [Example 30, N-{1-Cyclopropyl-3-[(cyclopropylmethyl)amino]-3-oxopropyl}-6-(3-fluorophenyl)nicotinamide] | 41 nM
27 | Cc1nc(CCNC(=O)c2cnc(-c3cccc(F)c3)c(Cl)c2)cs1 [Example 544, 5-Chloro-6-(3-fluorophenyl)-N-[2-(2-methyl-1,3-thiazol-4-yl)ethyl]nicotinamide] | 12 nM
28 | CCOC(=O)CC(NC(=O)c1ccc(-c2ccc(F)cc2)nc1)c1ccc(OC)cc1 (centres unmarked) [Example 506, Ethyl 3-({[6-(4-fluorophenyl)pyridin-3-yl]carbonyl}amino)-3-(4-methoxyphenyl)propanoate] | ≥ 1000 nM
29 | COc1cccc(-c2ccc(C(=O)NCC(C)(C)N3CCOCC3)cn2)c1 [Example 279, 6-(3-Methoxyphenyl)-N-(2-methyl-2-morpholin-4-ylpropyl)nicotinamide] | 211 nM
30 | CC(C)(CNC(=O)c1ccc(-c2ccccc2)nc1)N1CCOCC1 [Example 353, N-(2-Methyl-2-morpholin-4-ylpropyl)-6-phenylnicotinamide] | 25.3 nM
31 | COc1cccc(-c2ccc(C(=O)NCCN3CCCCC3=O)cn2)c1 [Example 271, 6-(3-Methoxyphenyl)-N-[2-(2-oxopiperidin-1-yl)ethyl]nicotinamide] | 219 nM
32 | COc1ccc(OCCNC(=O)c2ccc(-c3cccc(F)c3)nc2)cc1 [Example 434, 6-(3-Fluorophenyl)-N-[2-(4-methoxyphenoxy)ethyl] nicotinamide] | 101 nM
33 | COC(=O)CNC(=O)c1ccc(-c2cccc(OC)c2)nc1 [Example 283, Methyl N-{[6-(3-methoxyphenyl)pyridin-3-yl]carbonyl}glycinate] | 826 nM
34 | Cc1cccc(-c2ccc(C(=O)NCCNc3ccccc3)cn2)c1 [Example 490, N-(2-Anilinoethyl)-6-(3-methylphenyl)nicotinamide] | 39.9 nM
35 | C[C@H](O)CNC(=O)c1ccc(-c2cccc(F)c2)nc1 [Example 129, 6-(3-Fluorophenyl)-N-[(2S)-2-hydroxypropyl]nicotinamide] | 92 nM
36 | O=C(NCCC1CCC(=O)N1CCN1CCOCC1)c1ccc(-c2cccc(F)c2)nc1 (centres unmarked) [Example 42, 6-(3-Fluorophenyl)-N-{2-[1-(2-morpholin-4-ylethyl)-5-oxopyrrolidin-2-yl]ethyl}nicotinamide] | 12.6 nM
37 | O=C(NCCNc1ccccc1)c1ccc(-c2ccc(F)cc2)nc1 [Example 508, N-(2-Anilinoethyl)-6-(4-fluorophenyl)nicotinamide] | 412 nM
38 | O=C(NCc1cc(F)cc2c1OCOC2)c1ccc(-c2cccc(F)c2)nc1 [Example 184, N-[(6-Fluoro-4H-1,3-benzodioxin-8-yl)methyl]-6-(3-fluorophenyl)nicotinamide] | 49.5 nM
39 | Cc1cc(O)nc(CNC(=O)c2ccc(-c3cccc(F)c3)nc2)n1 [Example 115, 6-(3-Fluorophenyl)-N-[(4-hydroxy-6-methylpyrimidin-2-yl)methyl]nicotinamide] | 95 nM
40 | Cc1ccc(CN2CCC(NC(=O)c3ccc(-c4cccc(C)c4)nc3)C2=O)cc1 (centres unmarked) [Example 227, N-[1-(4-Methylbenzyl)-2-oxopyrrolidin-3-yl]-6-(3-methylphenyl)nicotinamide] | 62.2 nM
41 | Cc1cccc(-c2ccc(C(=O)NCc3ccc(Br)cc3)cn2)c1 [Example 489, N-(4-Bromobenzyl)-6-(3-methylphenyl)nicotinamide] | 214 nM
